Test results published in patent US10435399B2, “HDAC6 inhibitory heterocyclic compound” (TAKEDA PHARMACEUTICAL COMPANY LIMITED, priority 2017, dated 2019).

target: T1, HDAC6 enzyme (Homo sapiens, UniProt Q9UBN7); assay: HDAC6 enzyme inhibitory activity (HDAC-Glo I/II Assay kit); format: biochemical; settings: 10 μM; wells without enzyme = 100% inhibition; read-out: HDAC6 inhibitory rate (%) (10 μM)
T1 construct: transducing full length HDAC6 gene into Sf-9 insect cells; GST; purchased SignalChem; host or cells: Sf-9 insect cells
T1 sequence (Q9UBN7 1-1215): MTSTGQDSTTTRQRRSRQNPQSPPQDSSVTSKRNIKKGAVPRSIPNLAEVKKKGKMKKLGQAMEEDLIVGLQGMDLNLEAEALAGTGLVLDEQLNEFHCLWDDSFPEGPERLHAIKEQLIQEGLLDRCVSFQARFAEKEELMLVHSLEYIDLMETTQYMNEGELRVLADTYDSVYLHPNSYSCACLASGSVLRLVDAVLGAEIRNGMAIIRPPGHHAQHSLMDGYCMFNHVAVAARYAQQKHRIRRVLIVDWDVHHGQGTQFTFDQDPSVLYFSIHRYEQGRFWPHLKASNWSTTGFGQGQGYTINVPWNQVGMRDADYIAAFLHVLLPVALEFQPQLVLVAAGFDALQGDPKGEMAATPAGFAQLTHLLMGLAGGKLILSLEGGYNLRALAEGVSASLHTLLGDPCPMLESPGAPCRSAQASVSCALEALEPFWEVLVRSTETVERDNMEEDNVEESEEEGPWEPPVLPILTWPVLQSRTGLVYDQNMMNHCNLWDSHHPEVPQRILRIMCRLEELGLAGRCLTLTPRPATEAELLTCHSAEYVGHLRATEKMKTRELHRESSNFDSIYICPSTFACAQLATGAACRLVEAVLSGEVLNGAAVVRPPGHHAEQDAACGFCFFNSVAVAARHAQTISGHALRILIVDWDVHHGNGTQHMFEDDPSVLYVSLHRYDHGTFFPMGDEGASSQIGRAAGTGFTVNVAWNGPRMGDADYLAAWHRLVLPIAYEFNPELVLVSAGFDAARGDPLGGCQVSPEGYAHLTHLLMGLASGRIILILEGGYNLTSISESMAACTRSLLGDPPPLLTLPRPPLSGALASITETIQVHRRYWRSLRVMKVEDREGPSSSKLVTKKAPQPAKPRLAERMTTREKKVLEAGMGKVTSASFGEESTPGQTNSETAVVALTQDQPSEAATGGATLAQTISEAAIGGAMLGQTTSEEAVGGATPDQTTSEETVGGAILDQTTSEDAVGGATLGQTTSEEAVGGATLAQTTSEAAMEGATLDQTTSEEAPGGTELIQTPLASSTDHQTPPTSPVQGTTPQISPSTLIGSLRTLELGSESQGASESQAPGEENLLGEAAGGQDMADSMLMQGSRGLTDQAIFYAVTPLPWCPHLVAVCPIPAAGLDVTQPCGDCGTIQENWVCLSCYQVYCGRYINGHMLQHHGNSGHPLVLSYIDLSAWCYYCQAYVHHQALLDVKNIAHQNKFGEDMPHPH
Summary of the method: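 Sf-9-derived GST-purified full-length HDAC6 + cpd, 60 min RT, 24 mM Tris pH 7.5/0.6 mM glutathione/0.01% Tween-20; add HDAC-Glo substrate-developer, 20 min RT; luminescence. No-enzyme = 100% inhibition.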

| inhibition at 10 µM [%] | SMILES |
| --- | --- |
| 98 | O=C1c2cc(-c3nnc(C(F)F)o3)cnc2CN1Cc1ccccc1F [Example 351, 3-(5-(difluoromethyl)-1,3,4-oxadiazol-2-yl)-6-(2-fluoro-benzyl)-6,7-dihydro-5H-pyrrolo[3,4-b]pyridin-5-one] |
| 99 | CC(C)(C)OC(=O)N1CC(F)(F)C[C@@H]1CN1Cc2c(F)cc(-c3nnc(C(F)F)o3)cc2C1=O [Example 352, tert-butyl (2R)-2-((6-(5-(difluoromethyl)-1,3,4-oxadiazol-2-yl)-4-fluoro-1-oxo-1,3-dihydro-2H-isoindol-2-yl)methyl)-4,4-difluoropyrrolidine-1-carboxylate] |
| 98 | O=C1c2cc(-c3nnc(C(F)F)o3)cnc2CN1Cc1cc(F)cc(F)c1 [Example 353, 6-(3,5-difluorobenzyl)-3-(5-(difluoromethyl)-1,3,4-oxadiazol-2-yl)-6,7-dihydro-5H-pyrrolo[3,4-b]pyridin-5-one] |
| 92 | O=C1c2cc(-c3nnc(C(F)F)o3)cc(F)c2CN1C[C@H]1CC(F)(F)CN1 [Example 354, 6-(5-(difluoromethyl)-1,3,4-oxadiazol-2-yl)-2-(((2R)-4,4-difluoropyrrolidin-2-yl)-methyl)-4-fluoroisoindolin-1-one] |
| 100 | O=C1c2cc(-c3nnc(C(F)F)o3)cnc2CN1Cc1cccc(C(F)(F)F)c1 [Example 355] |
| 101 | O=C1c2cc(-c3nnc(C(F)F)o3)cc(F)c2CN1C[C@H]1CC(F)(F)CN1S(=O)(=O)C1CC1 [Example 356, 2-(((2R)-1-(cyclopropyl-sulfonyl)-4,4-difluoro-pyrrolidin-2-yl)methyl)-6-(5-(difluoromethyl)-1,3,4-oxadiazol-2-yl)-4-fluoro-isoindolin-1-one] |
| 98 | COc1ccccc1CN1Cc2ncc(-c3nnc(C(F)F)o3)cc2C1=O [Example 357, 3-(5-(difluoromethyl)-1,3,4-oxadiazol-2-yl)-6-(2-methoxybenzyl)-6,7-dihydro-5H-pyrrolo[3,4-b]-pyridin-5-one] |
| 102 | O=C1c2cc(-c3nnc(C(F)F)o3)cnc2CN1Cc1ccccc1OC(F)F [Example 358, 6-(2-(difluoromethoxy)-benzyl)-3-(5-(difluoro-methyl)-1,3,4-oxadiazol-2-yl)-6,7-dihydro-5H-pyrrolo-[3,4-b]pyridin-5-one] |
| 97 | O=C1c2cc(-c3nnc(C(F)F)o3)cnc2CN1Cc1cccnc1 [Example 359, 3-(5-(difluoromethyl)-1,3,4-oxadiazol-2-yl)-6-(pyridin-3-ylmethyl)-6,7-dihydro-5H-pyrrolo[3,4-b]pyridin-5-one] |
| 103 | O=C1c2cc(-c3nnc(C(F)F)o3)cc(F)c2CN1[C@@H]1CCOC[C@H]1NCC(F)(F)F [Example 360, 6-(5-(difluoromethyl)-1,3,4-oxadiazol-2-yl)-4-fluoro-2-((3S,4R)-3-((2,2,2-trifluoro-ethyl)amino)tetrahydro-2H-pyran-4-yl)isoindolin-1-one] |
| 101 | O=C1c2cc(-c3nnc(C(F)F)o3)cc(F)c2CN1[C@@H]1COCC[C@H]1NCC(F)(F)F [Example 361, 6-(5-(difluoromethyl)-1,3,4-oxadiazol-2-yl)-4-fluoro-2-((3S,4R)-4-((2,2,2-trifluoro-ethyl)amino)tetrahydro-2H-pyran-3-yl)isoindolin-1-one] |
| 99 | O=C1c2cc(-c3nnc(C(F)F)o3)cnc2CN1Cc1ccccn1 [Example 362, 3-(5-(difluoromethyl)-1,3,4-oxadiazol-2-yl)-6-(pyridin-2-yl-methyl)-6,7-dihydro-5H-pyrrolo[3,4-b]pyridin-5-one] |

Further lines, the compound ahead of its results:

| SMILES | inhibition at 10 µM [%] |
| --- | --- |
| O=C1c2cc(-c3nnc(C(F)F)o3)cnc2CN1Cc1ccc(F)c(F)c1 [Example 338, 6-(3,4-difluorobenzyl)-3-(5-(difluoromethyl)-1,3,4-oxadiazol-2-yl)-6,7-dihydro-5H-pyrrolo[3,4-b]pyridin-5-one] | 97 |
| O=C1c2cc(-c3nnc(C(F)F)o3)cnc2CN1Cc1ccccc1C(F)(F)F [Example 339, 3-(5-(difluoromethyl)-1,3,4-oxadiazol-2-yl)-6-(2-(trifluoromethyl)benzyl)-6,7-dihydro-5H-pyrrolo[3,4-b]-pyridin-5-one] | 96 |
| O=C1c2cc(-c3nnc(C(F)F)o3)cnc2CN1Cc1ccccc1Cl [Example 340, 6-(2-chlorobenzyl)-3-(5-(difluoromethyl)-1,3,4-oxadiazol-2-yl)-6,7-dihydro-5H-pyrrolo[3,4-b]pyridin-5-one] | 96 |
| CC(C)(C)OC(=O)NCC1(N2Cc3c(F)cc(-c4nnc(C(F)F)o4)cc3C2=O)CCCCC1 [Example 341, tert-butyl ((1-(6-(5-(difluoromethyl)-1,3,4-oxadiazol-2-yl)-4-fluoro-1-oxo-1,3-dihydro-2H-isoindol-2-yl)cyclohexyl)-methyl)carbamate] | 82 |
| O=C1c2cc(-c3nnc(C(F)F)o3)cnc2CN1Cc1cccc(Cl)c1 [Example 342, 6-(3-chlorobenzyl)-3-(5-(difluoromethyl)-1,3,4,- oxadiazol-2-yl)-6,7-dihydro-5H-pyrrolo[3,4-b]pyridin-5-one] | 100 |
| O=C1c2cc(-c3nnc(C(F)F)o3)cc(F)c2CN1C[C@@H]1CC(F)(F)CN1S(=O)(=O)C1CC1 [Example 343, 2-(((2S)-1-(cyclopropyl-sulfonyl)-4,4-difluoro-pyrrolidin-2-yl)methyl)-6-(5-(difluoromethyl)-1,3,4-oxadiazol-2-yl)-4-fluoroisoindolin-1-one] | 100 |
| O=C1c2cc(-c3nnc(C(F)F)o3)cc(F)c2CN1C[C@@H]1CC(F)(F)CN1S(=O)(=O)CC(F)(F)F [Example 344, 6-(5-(difluoromethyl)-1,3,4-oxadiazol-2-yl)-2-(((2S)-4,4-difluoro-1-((2,2,2-trifluoro-ethyl)sulfonyl)pyrrolidin-2-yl)methyl)-4-fluoroiso-indolin-1-one] | 100 |
| O=C1c2cc(-c3nnc(C(F)F)o3)cc(F)c2CN1C[C@@H]1CC(F)(F)CN1S(=O)(=O)c1cccc(F)c1 [Example 345, 2-(((2S)-4,4-difluoro-1-((3-fluorophenyl)sulfonyl)-pyrrolidin-2-yl)methyl)-6-(5-(difluoromethyl)-1,3,4-oxadiazol-2-yl)-4-fluoro-isoindolin-1-one] | 99 |
| O=C1c2cc(-c3nnc(C(F)F)o3)cnc2CN1Cc1ccncc1 [Example 346, 3-(5-(difluoromethyl)-1,3,4-oxadiazol-2-yl)-6-(pyridin-4-ylmethyl)-6,7-dihydro-5H-pyrrolo[3,4-b]pyridin-5-one] | 94 |
| O=C1c2cc(-c3nnc(C(F)F)o3)cnc2CN1C1(c2ccc(F)cc2)CC1 [Example 347, 3-(5-(difluoromethyl)-1,3,4-oxadiazol-2-yl)-6-(1-(4-fluorophenyl)cyclopropyl)-6,7-dihydro-5H-pyrrolo[3,4-b]pyridin-5-one] | 98 |
| O=C1c2cc(-c3nnc(C(F)F)o3)cnc2CN1Cc1ccc(F)cc1F [Example 348, 6-(2,4-difluorobenzyl)-3-(5-(difluoromethyl)-1,3,4-oxadiazol-2-yl)-6,7-dihydro-5H-pyrrolo-[3,4-b]pyridin-5-one] | 99 |
| Cc1cc(CN2Cc3ncc(-c4nnc(C(F)F)o4)cc3C2=O)no1 [Example 349, 3-(5-(difluoromethyl)-1,3,4-oxadiazol-2-yl)-6-((5-methyl-1,2-oxazol-3-yl)methyl)-6,7-dihydro-5H-pyrrolo[3,4-b]pyridin-5-one] | 99 |
| O=C1c2cc(-c3nnc(C(F)F)o3)cnc2CN1C1(c2ccccc2F)CC1 [Example 350, 3-(5-(difluoromethyl)-1,3,4-oxadiazol-2-yl)-6-(1-(2-fluorophenyl)cyclopropyl)-6,7-dihydro-5H-pyrrolo[3,4-b]pyridin-5-one] | 99 |
